The subject of one experiment is PC12 (TrkA & p75). Put plainly: 125I-NGF binding displacement in PC12 cells. Also noted: species or system rat. The settings on record: PC12 cells expressing TrkA and p75; result in words. The method, then: The method for acquiring the PC12 data described in Table 1 is described herein in Example 1. Each experiment was done at least once with an n value of 4 for each data point. (n/a=not acquired)
All cells were incubated at 37° C. in 5% CO2. PC12 cells were maintained in RPMI-1640 medium supplemented with 10% fetal bovine serum (FBS). A875 human melanoma cells were maintained in DMEM with 10% FBS. HEK 293 cells were stably transfected with human TrkA plasmid (see below) and maintained in DMEM with 10% FBS and G418 (600 μg/mL) for selection.
NGF binding was evaluated using methods familiar to those who are skilled in the art. Briefly, cells expressing one or both NGF receptors (PC12: TrkA+p75; A875: p75 alone; HEK_trkA: TrkA alone) were harvested by replacing the medium with calcium-magnesium free balanced salt (Grey's) solution and incubating at 37° C. for 15 min. For NGF binding, cells were resuspended at a concentration of 2×10^6 cells/mL in HEPES-Krebs-Ringer (HKR) buffer (10 mM HEPES; 125 mM NaCl; 4.8 mM KCl; 1.3 mM CaCl2; 1.2 mM MgSO4; 1.2 mM KH2PO4; 1 mg/ml BSA; 1 mg/ml glucose; pH 7.4) and exposed to ^125I-NGF (˜0.1 nM) in the presence or absence of varying concentrations of the compound. Non-specific binding was determined for reference by incubating ^125I-NGF with an excess of non-radioactive NGF in the abence of compound. Following a two-hour incubation period at 4° C., ^125I-NGF bound to the cells was quantified in a gamma radiation counter following separation from unbound NGF by filtration or centrifugation through glycerol (10% in HKR). Inhibition of binding was calculated as a percent of the specific binding (calculated as the differential between ^125I-NGF binding in the absence and presence of an excess of non-radioactive NGF without compound). Dose-response inhibition curves were typically generated with seven concentrations of a given compound, with three replicates for each concentration. For most compounds, multiple dose-response curves were generated.
The IC50 data shown in Table 1 were acquired using the procedure described herein using PC12 cells.

The test system of experiment [1] is NGF-induced neurite outgrowth, PC12 cells. In words: NGF-induced neurite outgrowth of PC12 cells. In kind it is cell-based, rat. The note with it: 25 μM compound, 5 ng/ml NGF, mean±SEM, n=8; no inhibition=100%, maximal inhibition=0%. On the procedure:
This assay was run as a further functional marker of NGF antagonism and takes advantage of the differentiation of PC12 cells (neurite outgrowth) induced by NGF. Cultures of PC12 cells were grown on Terasaki plates pre-coated with poly-D-lysine. Cells were exposed to NGF (1-50 (preferably 5) ng/ml) to induce neurite outgrowth as described elsewhere [L A Greene & A S Tischler, Establishment of a noradrenergic clonal line of rat adrenal pheochromocytoma cells which respond to nerve growth factor, Proc Natl Acad Sci USA. 1976 July; 73(7): 2424-2428]. In addition to NGF, cells were exposed to varying concentration of the compounds or vehicle. Following 4 days of exposure to NGF in the presence or absence of compound, neurite outgrowth was quantified. A neurite was scored if its caliber from origin to terminal was approximately the same and the length was equal to or greater than 1.5 the cell body diameter. The number of neurite bearing cells per total number of viable cells was calculated for each condition; the number of cells with neurites in the presence of NGF (without compound exposure) was considered to represent maximal (100%) outgrowth, to which the inhibitory effect of compounds of the invention on NGF-induced outgrowth was compared.

The subject of the next experiment is Male Sprague-Dawley rats. Put plainly: Seltzer or Partial Nerve Ligation (PNL) model of neuropathic pain, mechanical allodynia. Type of experiment: in vivo, rat. The note with it: 25 mg/kg i.p., 90 min post-treatment. The source says: The Partial Nerve Ligation (PNL) model (Seltzer et al., Pain 1990; 43:205) was used to induce chronic neuropathic pain. Male Sprague-Dawley rats were anesthetized with isoflurane, and injury to the sciatic nerve was achieved by tying a tight ligature around ⅓ to ½ of the sciatic nerve just proximal to the nerve's trifurcation in the mid-thigh. Animals develop thermal and mechanical hyperalgesia and allodynia, as well as a long-lasting spontaneous pain or dysesthesia after the nerve injury.
Mechanical allodynia testing: Pre- and post-injury baselines as well as post-treatment values (vehicle or compound-treated animals) for mechanical allodynia were evaluated using Von Frey filaments (Stoelting, Wood Dale, Ill., USA) with varying stiffness. […] The mean and standard error of the mean (SEM) were determined for each paw in each treatment group (ipsilateral/injured paw and contralateral/non-injured paw). […] Effects of compounds were evaluated two weeks after the injury. Compound or vehicle was administered (i.p. or s.c.) and effects on mechanical allodynia were measured at different time points after dosing (e.g., 30, 60 and 90 min.).
Data analysis: Statistical analyses were conducted using Prism™ 4.01 (GraphPad, San Diego, Calif., USA). Mechanical hypersensitivity of the injured paw was determined by comparing contralateral to ipsilateral paw values within the vehicle group at each time point. […]

The test system of a further experiment is Mice. Put plainly: Writhing test (acetic acid abdominal contraction test). Type of experiment: in vivo, mouse. The method, then: The acetic acid abdominal contraction test (Martinez et al., Pain 1999; 81: 179) was used to determine the efficacy of different compounds in a model of acute visceral chemical nociception. […] Compound or vehicle was administered (i.p. or s.c.) 15-45 minutes prior to the acetic acid injection. Each episode of writhing is characterized by a lengthwise stretching of the torso with a concomitant arching of the back.
Statistical analysis was performed using Prism™ 4.01 software package (GraphPad, San Diego, Calif., USA). The difference in response levels between treatment groups and control vehicle group was analyzed using an ANOVA followed by Bonferroni's method for post-hoc pair-wise comparisons. A p value <0.05 was considered to be significant
Animals were treated with vehicle (VEH) or Compound 5 (100 mg/kg i.p.; CMP) 10-20 minutes before the intraperitoneal injection of acetic acid, as described above.

This note sets out measurements from patent US20070123514A1, “Methods of modulating neurotrophin-mediated activity” (PainCeptor Pharma Corporation, priority 2005, published 2007).

Entries after “also recorded” stand apart in the source; their conditions may differ.

As for `O=C(O)c1ccc(Cl)c(N2C(=O)c3cccc4cc([N+](=O)[O-])cc(c34)C2=O)c1` [Compound 5, 4-Chloro-3-(5-nitro-1,3-dioxo-1H,3H-benzo[de]isoquinolin-2-yl)-benzoic acid], the “blocking of NGF binding (dose-response curve)” value with PC12 (TrkA & p75) was “effectively block NGF binding”. The “NGF-induced neurite outgrowth, % of NGF-only control” value in experiment [1] is listed as 65%±17%. Also, in the experiment on Male Sprague-Dawley rats (result in words, 25 mg/kg), the “antinociceptive effect / reversal of mechanical allodynia in partial nerve ligation model” value is given as “significant reversal of the mechanical allodynia; also recorded: antinociceptive effects”. For the same compound, the “mechanical allodynia, Von Frey response threshold of injured paw” value in the experiment on Male Sprague-Dawley rats (vehicle 2.17±0.19 g, n=7) came to 5.14 ± 0.36 g. Also, the “chemically-induced abdominal contractions (number in 30 minutes)” value with Mice (100 mg/kg i.p. 10-20 min before acetic acid, vehicle 58±3, n=6) was determined as 14±6. Besides, the “antinociceptive effect in the Writhing Test” value in the experiment with Mice (100 mg/kg i.p., result in words, p<0.001 vs vehicle, 100 mg/kg) was “significant antinociceptive effects”.
